Consider nine compounds from PMC7554884, “Small Molecule Inhibitors of DYRK1A Identified by Computational and Experimental Approaches” (International Journal of Molecular Sciences, 2020).

For one assay, the target named is T1, DYRK1A(h) (Homo sapiens, UniProt Q13627).
T1 construct: purchased Eurofins Scientific Inc. Korea (contract assay service)
Kind of assay: In vitro enzymatic assay (Eurofins, radiometric 33P-ATP). It is filed as biochemical. The settings on record: for inhibition at 10 µM / % inhibition at 10 μM: DYRK1A; for IC50: read-out: IC50 values against DYRK1A. On the procedure: Enzymatic assays were performed by Eurofins Scientific Inc. Korea (Brussels, Belgium). […] The reaction was initiated by the addition of the MgATP mix. After incubation for 40 min at room temperature, the reaction was stopped by the addition of 3% phosphoric acid solution. Then, 10 μL of the reaction was then spotted onto a P30 filtermat and washed three times for 5 min in 75 mM phosphoric acid and once in methanol prior to drying and scintillation counting. […] All assays were performed in duplicate, and the average IC50 value was reported.

The test system of another assay is GSK3β. The note with it: read-out: IC50 against GSK3β, cited from earlier work.
The subject of the next assay is DYRK1A. More on the design: method as in PMID 30170319. The settings on record: staurosporine; read-out: IC50 against DYRK1A; cited from earlier work.
Setting [1] is: as summarised in the discussion.

The inhibition is the share of the control response that was lost under treatment. High values mean strong suppression, low ones little suppression. As usually defined, the IC50 is the midpoint of a concentration-inhibition curve. The % inhibition is the drop in the measured response relative to a control, in per cent. A low value points to little suppression.

Structures are written as SMILES. Where two headings read alike, the source gives them in different places.

As to `COC(=O)c1sc2ncnc(Nc3cccc(OC)c3)c2c1C` [Compound 2, methyl 4-((3-methoxyphenyl)amino)-5-methylthieno (2,3-d)pyrimidine-6-carboxylate], at 10 µM the inhibition against DYRK1A(h) was 58%. Moreover, the IC50 at DYRK1A(h) (duplicate, average) was 5.71 µM.

Regarding `COc1ccc(Nc2ncc(F)c(N3CCOCC3)n2)cc1` [Compound 7, 5-fluoro-N-(4-methoxyphenyl)-4-morpholinopyrimidin-2-amine], at DYRK1A(h), the “% inhibition at 10 μM” value was 33% and the inhibition at 10 µM is less than 40%.

Turning to `CC(C)c1nn(C)cc1-c1nc2c(N3CCN(Cc4cccnc4)CC3)c(Br)cnc2[nH]1` [Compound 1, 6-bromo-2-(3-isopropyl-1-methyl-1H-pyrazol-4-yl)-7-(4-(pyridin-3-ylmethyl)piperazin-1-yl)-3H-imidazo(4,5-b)pyridine], the inhibition at 10 µM on DYRK1A(h) was found to be 70%. The half-inhibitory concentration (IC50) at DYRK1A(h) (duplicate, average) is 6.77 µM.

Regarding `N#Cc1cccc2sc(C(=O)O)cc12` [Compound 4, 4-cyanobenzo[b]thiophene-2-carboxylic acid], the inhibition at 10 µM on DYRK1A(h) came out at 71%. Besides, the IC50 is approximately 3.2 µM on DYRK1A(h) (setting [1]) and 3.24 µM on DYRK1A(h) (duplicate, average).

In the case of `COc1ccc(Nc2cc(C)nc(Nc3ccc(OC)cc3)n2)cc1` [Compound 5, N^2,N^4-bis(4-methoxyphenyl)-6-methylpyrimidine-2,4-diamine], on DYRK1A(h), the “% inhibition at 10 μM” value amounted to 27% and the inhibition at 10 µM was less than 40%.

Turning to `O=C(O)c1cc2cc(Br)ccc2s1` [Compound 3, 5-bromobenzo[b]thiophene-2-carboxylic acid], testing at 10 µM against DYRK1A(h) gave an inhibition of 82%. For the same compound, the IC50 on DYRK1A(h) (setting [1]) is approximately 3.2 µM; on DYRK1A(h) (duplicate, average) it was 3.25 µM.

For `CN[C@@H]1C[C@H]2O[C@@](C)([C@@H]1OC)n1c3ccccc3c3c4c(c5c6ccccc6n2c5c31)C(=O)NC4` [Staurosporine, staurosporine], the values for the IC50 in the assay on GSK3β (staurosporine) and in the assay with DYRK1A were […] and […], respectively.

For the compound `O=C(O)c1cccc(Nc2nc(-c3ccccc3)c3cc(Br)ccc3n2)c1` [Compound 6, 3-((6-bromo-4-phenylquinazolin-2-yl)amino)benzoic acid], the inhibition at 10 µM on DYRK1A(h) came out at 76%. In addition, on DYRK1A(h) (duplicate, average), the half-inhibitory concentration (IC50) was determined as 5.83 µM.

Regarding `N#Cc1ccc2[nH]c(O)c(-c3ccc(CN4CCOCC4)cn3)c2c1` [AZD1080, 2-hydroxy-3-(5-(morpholinomethyl)pyridin-2-yl)-1H-indole-5-carbonitrile, reference compound], the IC50 is 31 nM in the assay on GSK3β (AZD1080) and 2.91 µM on DYRK1A(h) (duplicate, average). The compound also came in with an inhibition at 10 µM on DYRK1A(h) of 71%.
